Consider 16 molecules from patent US20250163070A1, “SPIRO COMPOUND AND APPLICATION THEREOF” (HITGEN INC., priority 2022, published 2025).

Broadly, the IC50 is the point on the concentration scale where inhibition reaches its midpoint. For orientation: Kd means a measure of binding affinity in units of concentration.

The structures appear in SMILES notation.

T1 sequence (Q96SW2 whole entry, species assumed): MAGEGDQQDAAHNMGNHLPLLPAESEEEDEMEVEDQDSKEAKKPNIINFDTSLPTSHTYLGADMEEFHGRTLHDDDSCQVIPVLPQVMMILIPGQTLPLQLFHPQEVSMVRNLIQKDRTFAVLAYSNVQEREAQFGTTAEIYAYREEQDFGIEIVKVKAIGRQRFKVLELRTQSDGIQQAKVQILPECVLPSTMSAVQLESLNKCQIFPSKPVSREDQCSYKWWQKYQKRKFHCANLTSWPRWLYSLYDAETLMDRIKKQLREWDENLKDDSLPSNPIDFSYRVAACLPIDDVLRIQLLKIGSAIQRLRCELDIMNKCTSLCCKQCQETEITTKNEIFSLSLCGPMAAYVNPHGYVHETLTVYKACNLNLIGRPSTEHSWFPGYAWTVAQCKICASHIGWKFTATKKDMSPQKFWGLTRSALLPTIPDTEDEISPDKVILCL
T1 sequence (Q16531 whole entry partner, species assumed): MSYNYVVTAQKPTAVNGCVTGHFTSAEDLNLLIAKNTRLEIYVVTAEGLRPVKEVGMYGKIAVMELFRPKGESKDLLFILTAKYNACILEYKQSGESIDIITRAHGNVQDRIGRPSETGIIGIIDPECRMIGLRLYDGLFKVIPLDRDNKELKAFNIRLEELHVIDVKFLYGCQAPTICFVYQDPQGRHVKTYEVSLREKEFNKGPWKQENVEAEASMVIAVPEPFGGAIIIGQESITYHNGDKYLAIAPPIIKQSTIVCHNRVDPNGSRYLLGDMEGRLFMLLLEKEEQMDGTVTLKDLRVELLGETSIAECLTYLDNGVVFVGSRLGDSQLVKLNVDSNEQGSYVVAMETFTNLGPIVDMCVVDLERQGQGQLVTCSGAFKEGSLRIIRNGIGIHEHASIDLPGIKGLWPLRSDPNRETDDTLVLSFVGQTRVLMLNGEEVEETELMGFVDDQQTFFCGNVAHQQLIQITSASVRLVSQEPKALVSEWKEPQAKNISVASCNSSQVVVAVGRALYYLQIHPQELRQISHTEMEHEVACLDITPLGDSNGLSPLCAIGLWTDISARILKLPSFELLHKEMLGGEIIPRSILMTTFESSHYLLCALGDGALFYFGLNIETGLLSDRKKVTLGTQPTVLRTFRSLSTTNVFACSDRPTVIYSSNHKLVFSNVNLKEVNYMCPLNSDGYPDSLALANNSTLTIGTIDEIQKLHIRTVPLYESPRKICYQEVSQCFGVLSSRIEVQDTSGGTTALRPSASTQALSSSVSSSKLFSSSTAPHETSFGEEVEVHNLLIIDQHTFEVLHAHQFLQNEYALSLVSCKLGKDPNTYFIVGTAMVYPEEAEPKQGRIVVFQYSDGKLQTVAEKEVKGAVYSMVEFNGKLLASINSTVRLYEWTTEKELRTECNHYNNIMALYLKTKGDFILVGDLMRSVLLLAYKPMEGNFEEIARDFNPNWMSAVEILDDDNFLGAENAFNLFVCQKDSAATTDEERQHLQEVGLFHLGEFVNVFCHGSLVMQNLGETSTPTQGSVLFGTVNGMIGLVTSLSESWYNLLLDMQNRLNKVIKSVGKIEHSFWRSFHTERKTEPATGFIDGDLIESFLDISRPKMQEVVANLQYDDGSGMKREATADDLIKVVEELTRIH

One assay has as its target T1, CRBN/DDB1 protein (Homo sapiens (Human), UniProt Q96SW2). Put plainly: Inhibition of CRBN/DDB1 protein activity, fluorescence resonance energy transfer (FRET) method with FITC-labeled thalidomide analog. The settings on record: 5.0 nM CRBN/DDB1, 50.0 nM FITC-labeled thalidomide analog, 25° C., pH 7.0. Format: binding. From the text: Experiment 1 Detection of Compounds Inhibition of CRBN/DDB1 Protein Activity (Using a Fluorescence Resonance Energy Transfer (FRET) Method)
Microplate reader (BMG PHERAstar FSX), ECHO (LABCYTE Echo 665), microplate thermostatic oscillator (Hangzhou Ruicheng Instrument Co., Ltd.), disodium hydrogen phosphate (Sigma-Aldrich (Shanghai) Trading Co., Ltd.), sodium dihydrogen phosphate (Sigma-Aldrich (Shanghai) Trading Co., Ltd.), bovine serum albumin (Sigma-Aldrich (Shanghai) Trading Co., Ltd.), Anti-6His-Tb crypate Gold (Cisbio Bioassays Company CISBIO), CRBN/DDB1 protein (HitGen Inc.), 384-well plate (Grenier Bio-one (Shanghai) Co., Ltd.).
The compound powders were dissolved in DMSO and serially diluted using ECHO. The resulting dilutions were individually added to 384-well reaction plates, ensuring that the final concentration of DMSO in the entire reaction system (10.0 μL) was 1.0%. An equal volume of DMSO was added as a control.
The CRBN/DDB1 protein was diluted to twice the required final concentration (5.0 nM) by addition of 20 mM disodium hydrogen phosphate, 20 mM sodium dihydrogen phosphate, 0.08% bovine serum albumin and a buffer with pH 7.0. […] The Anti-6His-Tb crypate Gold and FITC-labeled thalidomide analog were diluted to twice the required final concentration by addition of 20 mM disodium hydrogen phosphate, 20 mM sodium dihydrogen phosphate, 0.08% bovine serum albumin and the buffer with pH 7.0. The final concentration of Anti-6His-Tb crypate Gold was 0.2 nM, and the final concentration of the FITC-labeled thalidomide analog was 50.0 nM, so as to obtain a mixture of Anti-6His-Tb crypate Gold/FITC-labeled thalidomide analog. 5.0 μL of the mixture of Anti-6His-Tb crypate Gold/FITC-labeled thalidomide analog was individually added to the 384-well reaction plates, followed by centrifugation at 1000 rpm for 1 min. Then the reaction plates were incubated in the microplate thermostatic oscillator at 25° C. and 250 rpm for 30 min. After the reaction was completed, the fluorescence signal values in the 384-well reaction plates were read using the microplate reader (Ex=337 nm, Em=520/490 nm).
A solvent group (containing 5.0 nM CRBN/DDB1, 0.2 nM Anti-6His-Tb crypate Gold, 50.0 nM FITC-labeled thalidomide analog and 1.0% DMSO) was used as a negative control. A reaction buffer group (containing 0.2 nM Anti-6His-Tb crypate Gold, 50.0 nM FITC-labeled thalidomide analog and 1.0% DMSO) was used as the blank control.
The residual activity percentage at each concentration was calculated using the following formula: […]
A dose-effect curve was fitted using GraphPad 6.0 to calculate the IC50 value.
`CN(C)C(=O)c1c(C(=O)N2CC3(CC(=O)NC3=O)C2)sc2ccccc12` [Compound A2] showed an IC50 of 100 to 1000 nM.

Molecule `CN(C)C(=O)c1[nH]c2ccccc2c1C(=O)N1CC2(CC(=O)NC2=O)C1` [Compound A3] returned an IC50 of less than 100 nM.

In turn, `CN(C)C(=O)c1ccc(C(=O)N2CC3(CC(=O)NC3=O)C2)cc1` [Compound A4] came in with an IC50 of 1000 to 10000 nM.

As to `CN(C)C(=O)c1cccc(C(=O)N2CC3(CC(=O)NC3=O)C2)c1` [Compound A5], the IC50 was in the range of 1000 to 10000 nM.

Molecule `CN(C)C(=O)c1cscc1C(=O)N1CC2(CC(=O)NC2=O)C1` [Compound A6] registered an IC50 of 100 to 1000 nM.

Take `O=C1CC2(CN(C(=O)c3c(C(=O)NC4CCCCC4)sc4ccccc34)C2)C(=O)N1` [Compound A7]: the IC50 is less than 100 nM.

With `O=C1CC2(CN(C(=O)c3c(C(=O)N4CCNCC4)sc4ccccc34)C2)C(=O)N1` [Compound A8], the IC50 was less than 100 nM.

In turn, `O=C1CC2(CN(C(=O)c3c(C(=O)N4CC5(COC5)C4)sc4ccccc34)C2)C(=O)N1` [Compound A9] showed an IC50 of less than 100 nM.

The molecule `NC(=O)c1sc2ccccc2c1C(=O)N1CC2(CC(=O)NC2=O)C1` [Compound A10] displayed an IC50 of 100 to 1000 nM.

Consider `CC(=O)N1CCN(C(=O)c2sc3ccccc3c2C(=O)N2CC3(CC(=O)NC3=O)C2)CC1` [Compound A11], for which the IC50 is less than 100 nM.

For `O=C1CC2(CN(C(=O)c3cc4ccccc4s3)C2)C(=O)N1` [Compound A12], the IC50 fell in the range of 1000 to 10000 nM.

Consider `O=C1CC2(CN(C(=O)c3csc4ccccc34)C2)C(=O)N1` [Compound A13], for which the IC50 fell in the range of 1000 to 10000 nM.

Regarding `COC(=O)c1ccccc1C(=O)N1CC2(CC(=O)NC2=O)C1` [Compound A14], the IC50 fell in the range of 100 to 1000 nM.

As to `CN(C)C(=O)c1sccc1C(=O)N1CC2(CC(=O)NC2=O)C1` [Compound A15], the IC50 was in the range of 1000 to 10000 nM.

In the case of `CN(C)C(=O)c1[nH]c2ccccc2c1CN1CC2(CC(=O)NC2=O)C1` [Compound A17], the IC50 was in the range of 100000 to 200000 nM.

As for `CN(C)C(=O)c1c(C(=O)N2CC3(CC(=O)NC3=O)C2)c2ccccc2n1C` [Compound A19], the IC50 is less than 100 nM.

The target in another assay is T1, CRBN/DDB1 protein. The assay is described as follows: Isothermal titration calorimetry (ITC) detection of compound binding to CRBN/DDB1. Particulars: 25° C., pH 7.0, 10 μM protein, 100 μM compound, one set of sites model.
Experimental: Experiment 2 Isothermal Titration Calorimetry (ITC) Detection of Compound Binding to CRBN/DDB1
6.1 mL of 200 mM disodium hydrogen phosphate aqueous solution and 3.9 mL of 200 mM sodium dihydrogen phosphate aqueous solution were mixed to obtain 200 mM PB buffer (pH 7.0). Then, 5397 μL of deionized water was mixed with 600 μL of 200 mM PB buffer and 3 μL of 10% Tween 20 aqueous solution to prepare a detection buffer with a pH of 7.0.
The protein storage solution was subjected to buffer exchange using the detection buffer prepared above according to the instruction of the Zeba™ Spin Desalting Columns (Thermo Fisher Scientific Inc., #89882). After the exchange was completed, ultraviolet (UV) absorption of the protein solution at OD280nm was measured using the microplate reader (BMG LABTECH Inc., PHERAstar FSX), and the concentration was calculated. Based on the measured concentration, the protein was diluted to 10 μM with the detection buffer, and added with DMSO to a final concentration of 1%, resulting in a total volume of 300 μL. After a brief centrifugation at room temperature, the solution was collected for later use.
The compound powder was dissolved in DMSO and diluted to 100 μM with the detection buffer prepared above. The DMSO concentration was adjusted to a final concentration of 1% with a total volume of 100 μL. […]
`CN(C)C(=O)c1[nH]c2ccccc2c1C(=O)N1CC2(CC(=O)NC2=O)C1` [Compound A3]: the Kd came out at 15 nM.
